# Data from the supplement of paper PMC10307832.
# Tests used:
# Test in all cases: relative viability (nuclei count vs DMSO), 5 days (fraction); higher = more cells survive
# NCI-H522 = test system: NCI-H522
# In short: (§1)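 Lung cancer cell lines in 1536-well plates got either a single drug or a fixed anchor-drug dose together with five library-drug doses (not always all listed) in √10 steps, by pin tool, on the day after seeding. Nuclei were counted after 5 days, and relative viability is the treated-to-vehicle ratio of nuclei counts. Values are medians of duplicate plates.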
# CAL-12T = test system: CAL-12T
# In short: as §1
# NCI-H1944 = test system: NCI-H1944
# In short: as §1
# NCI-H1395 = test system: NCI-H1395
# In short: as §1
# LC-2-ad = test system: LC-2-ad
# In short: as §1
# NCI-H1734 = test system: NCI-H1734
# In short: as §1
# HCC-15 = test system: HCC-15
# In short: as §1
# LU99A = test system: LU99A
# In short: as §1
# COR-L 105 = test system: COR-L 105
# In short: as §1
# PC-14 = test system: PC-14
# In short: as §1
# NCI-H1975 = test system: NCI-H1975
# In short: as §1
# H3255 = test system: H3255
# In short: as §1
# NCI-H1666 = test system: NCI-H1666
# In short: as §1
# PC-3 [JPC-3] = test system: PC-3 [JPC-3]
# In short: as §1
# HCC-366 = test system: HCC-366
# In short: as §1
# NCI-H520 = test system: NCI-H520
# In short: as §1
# NCI-H3122 = test system: NCI-H3122
# In short: as §1
# NCI-H647 = test system: NCI-H647
# In short: as §1
# NCI-H1563 = test system: NCI-H1563
# In short: as §1
# NCI-H661 = test system: NCI-H661
# In short: as §1
# NCI-H838 = test system: NCI-H838
# In short: as §1
# NCI-H1993 = test system: NCI-H1993
# In short: as §1
# SK-LU-1 = test system: SK-LU-1
# In short: as §1
# HARA = test system: HARA
# In short: as §1
# NCI-H2228 = test system: NCI-H2228
# In short: as §1
compound,measurement,setting,value
CCCCCCCCCCCC1=C(O)C(=O)C=C(O)C1=O [Embelin] + N=C(N)NC(=N)NCCc1ccccc1 [Phenformin] (partner 250 µM),relative viability,NCI-H522; first compound 0.08 µM,0.722
same,relative viability,NCI-H522; first compound 0.8 µM,0.856
same,relative viability,NCI-H522; first compound 2.53 µM,0.674
same,relative viability,NCI-H522; first compound 8 µM,0.621
same,relative viability,CAL-12T; first compound 0.08 µM,0.578
same,relative viability,CAL-12T; first compound 0.8 µM,0.687
same,relative viability,CAL-12T; first compound 2.53 µM,0.554
same,relative viability,CAL-12T; first compound 8 µM,0.543
same,relative viability,NCI-H1944; first compound 0.08 µM,0.196
same,relative viability,NCI-H1944; first compound 0.8 µM,0.237
same,relative viability,NCI-H1944; first compound 2.53 µM,0.203
same,relative viability,NCI-H1944; first compound 8 µM,0.202
same,relative viability,NCI-H1395; first compound 0.08 µM,0.46
same,relative viability,NCI-H1395; first compound 0.8 µM,0.495
same,relative viability,NCI-H1395; first compound 2.53 µM,0.474
same,relative viability,NCI-H1395; first compound 8 µM,0.395
same,relative viability,LC-2-ad; first compound 0.08 µM,0.608
same,relative viability,LC-2-ad; first compound 0.8 µM,0.772
same,relative viability,LC-2-ad; first compound 2.53 µM,0.617
same,relative viability,LC-2-ad; first compound 8 µM,0.367
same,relative viability,NCI-H1734; first compound 0.08 µM,0.383
same,relative viability,NCI-H1734; first compound 0.8 µM,0.521
same,relative viability,NCI-H1734; first compound 2.53 µM,0.526
same,relative viability,NCI-H1734; first compound 8 µM,0.327
same,relative viability,HCC-15; first compound 0.08 µM,0.477
same,relative viability,HCC-15; first compound 0.8 µM,0.504
same,relative viability,HCC-15; first compound 2.53 µM,0.461
same,relative viability,HCC-15; first compound 8 µM,0.438
same,relative viability,LU99A; first compound 0.08 µM,0.856
same,relative viability,LU99A; first compound 0.8 µM,0.951
same,relative viability,LU99A; first compound 2.53 µM,0.942
same,relative viability,LU99A; first compound 8 µM,0.757
same,relative viability,COR-L 105; first compound 0.08 µM,0.582
same,relative viability,COR-L 105; first compound 0.8 µM,0.595
same,relative viability,COR-L 105; first compound 2.53 µM,0.446
same,relative viability,COR-L 105; first compound 8 µM,0.496
same,relative viability,PC-14; first compound 0.08 µM,0.604
same,relative viability,PC-14; first compound 0.8 µM,0.988
same,relative viability,PC-14; first compound 2.53 µM,0.465
same,relative viability,PC-14; first compound 8 µM,0.393
same,relative viability,NCI-H1975; first compound 0.08 µM,0.445
same,relative viability,NCI-H1975; first compound 0.8 µM,0.413
same,relative viability,NCI-H1975; first compound 2.53 µM,0.405
same,relative viability,NCI-H1975; first compound 8 µM,0.384
same,relative viability,H3255; first compound 0.08 µM,0.374
same,relative viability,H3255; first compound 0.8 µM,0.326
same,relative viability,H3255; first compound 2.53 µM,0.324
same,relative viability,H3255; first compound 8 µM,0.362
same,relative viability,NCI-H1666; first compound 0.08 µM,0.57
same,relative viability,NCI-H1666; first compound 0.8 µM,0.631
same,relative viability,NCI-H1666; first compound 2.53 µM,0.507
same,relative viability,NCI-H1666; first compound 8 µM,0.575
same,relative viability,PC-3 [JPC-3]; first compound 0.08 µM,0.475
same,relative viability,PC-3 [JPC-3]; first compound 0.8 µM,0.476
same,relative viability,PC-3 [JPC-3]; first compound 2.53 µM,0.477
same,relative viability,PC-3 [JPC-3]; first compound 8 µM,0.477
same,relative viability,HCC-366; first compound 0.08 µM,0.646
same,relative viability,HCC-366; first compound 0.8 µM,0.638
same,relative viability,HCC-366; first compound 2.53 µM,0.644
same,relative viability,HCC-366; first compound 8 µM,0.676
same,relative viability,NCI-H520; first compound 0.08 µM,0.632
same,relative viability,NCI-H520; first compound 0.8 µM,0.352
same,relative viability,NCI-H520; first compound 2.53 µM,0.742
same,relative viability,NCI-H520; first compound 8 µM,0.338
same,relative viability,NCI-H3122; first compound 0.08 µM,0.388
same,relative viability,NCI-H3122; first compound 0.8 µM,0.415
same,relative viability,NCI-H3122; first compound 2.53 µM,0.384
same,relative viability,NCI-H3122; first compound 8 µM,0.282
same,relative viability,NCI-H647; first compound 0.08 µM,0.632
same,relative viability,NCI-H647; first compound 0.8 µM,0.721
same,relative viability,NCI-H647; first compound 2.53 µM,0.546
same,relative viability,NCI-H647; first compound 8 µM,0.472
same,relative viability,NCI-H1563; first compound 0.08 µM,0.711
same,relative viability,NCI-H1563; first compound 0.8 µM,0.728
same,relative viability,NCI-H1563; first compound 2.53 µM,0.626
same,relative viability,NCI-H1563; first compound 8 µM,0.578
same,relative viability,NCI-H661; first compound 0.08 µM,0.287
same,relative viability,NCI-H661; first compound 0.8 µM,0.312
same,relative viability,NCI-H661; first compound 2.53 µM,0.276
same,relative viability,NCI-H661; first compound 8 µM,0.261
same,relative viability,NCI-H838; first compound 0.08 µM,0.641
same,relative viability,NCI-H838; first compound 0.8 µM,0.879
same,relative viability,NCI-H838; first compound 2.53 µM,0.543
same,relative viability,NCI-H838; first compound 8 µM,0.516
same,relative viability,NCI-H1993; first compound 0.08 µM,0.499
same,relative viability,NCI-H1993; first compound 0.8 µM,0.542
same,relative viability,NCI-H1993; first compound 2.53 µM,0.489
same,relative viability,NCI-H1993; first compound 8 µM,0.467
same,relative viability,SK-LU-1; first compound 0.08 µM,0.608
same,relative viability,SK-LU-1; first compound 0.8 µM,0.624
same,relative viability,SK-LU-1; first compound 2.53 µM,0.534
same,relative viability,SK-LU-1; first compound 8 µM,0.365
same,relative viability,HARA; first compound 0.08 µM,0.438
same,relative viability,HARA; first compound 0.8 µM,0.56
same,relative viability,HARA; first compound 2.53 µM,0.497
same,relative viability,HARA; first compound 8 µM,0.455
same,relative viability,NCI-H2228; first compound 0.08 µM,0.332
same,relative viability,NCI-H2228; first compound 0.8 µM,0.314
same,relative viability,NCI-H2228; first compound 2.53 µM,0.403
same,relative viability,NCI-H2228; first compound 8 µM,0.309
